Measured values taken from patent US12473303B2, “4-[[(7-aminopyrazolo[1,5-a]pyrimidin-5-yl)amino methyl]piperidin-3-ol compounds and their therapeutic use” (CARRICK THERAPEUTICS LIMITED, priority 2019, dated 2025).
Like-named read-outs stand apart in the source and are kept apart here.

Experiments:
Human CDK7/CycH/MAT1 = Human CDK7/CycH/MAT1 (Homo sapiens (Human), UniProt P50613); assay: Radiometric protein kinase assay (33PanQinase Activity Assay), CDK7; assay type: biochemical; conditions: Table 1; ATP 3 μM
Chain of Human CDK7/CycH/MAT1 (P50613 whole entry): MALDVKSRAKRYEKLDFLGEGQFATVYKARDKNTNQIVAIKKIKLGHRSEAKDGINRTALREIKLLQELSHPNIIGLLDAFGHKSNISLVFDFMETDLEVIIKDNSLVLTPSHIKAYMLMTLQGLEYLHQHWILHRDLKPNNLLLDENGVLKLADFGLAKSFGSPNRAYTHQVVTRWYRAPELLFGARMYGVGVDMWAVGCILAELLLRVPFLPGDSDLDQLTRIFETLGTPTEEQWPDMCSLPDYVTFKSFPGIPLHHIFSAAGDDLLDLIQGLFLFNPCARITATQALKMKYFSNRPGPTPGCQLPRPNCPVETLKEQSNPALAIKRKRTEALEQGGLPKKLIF
Chain of Human CDK7/CycH/MAT1 (P51946 whole entry partner): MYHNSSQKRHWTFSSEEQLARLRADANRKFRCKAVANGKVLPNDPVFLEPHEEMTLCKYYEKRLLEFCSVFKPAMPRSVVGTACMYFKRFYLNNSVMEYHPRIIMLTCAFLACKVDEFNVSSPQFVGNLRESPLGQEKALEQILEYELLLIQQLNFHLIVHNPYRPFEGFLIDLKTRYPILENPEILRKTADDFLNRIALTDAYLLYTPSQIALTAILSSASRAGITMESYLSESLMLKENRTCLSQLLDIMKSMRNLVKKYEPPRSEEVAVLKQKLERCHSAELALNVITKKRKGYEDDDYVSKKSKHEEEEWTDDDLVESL
Chain of Human CDK7/CycH/MAT1 (P51948 whole entry partner): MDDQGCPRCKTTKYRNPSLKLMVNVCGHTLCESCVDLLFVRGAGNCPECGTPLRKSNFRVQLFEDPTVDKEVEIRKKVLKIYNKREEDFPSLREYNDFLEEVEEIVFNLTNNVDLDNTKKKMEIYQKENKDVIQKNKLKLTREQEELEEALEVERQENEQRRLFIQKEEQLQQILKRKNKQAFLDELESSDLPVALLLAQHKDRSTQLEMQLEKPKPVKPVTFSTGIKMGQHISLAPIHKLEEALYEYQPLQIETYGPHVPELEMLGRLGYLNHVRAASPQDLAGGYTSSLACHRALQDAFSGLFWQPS
Protocol: (§1) A radiometric protein kinase assay (^33PanQinase® Activity Assay) was used for measuring the kinase activity of the two protein kinases (CDK12/CDK7). All kinase assays were performed in 96-well FlashPlates™ from PerkinElmer (Boston, MA, USA) in a 50 μL reaction volume.
(§2) The reaction cocktail was pipetted in four steps in the following order: • 20 μL of assay buffer (standard buffer) • 5 μL of ATP solution (in H2O) • 5 μL of test compound (in 10% DMSO) • 10 μL of substrate/10 μL of enzyme solution (premixed)
(§3) The reaction mixture was incubated at 30° C. for 60 min and then stopped by the addition of 2% (v/v) H3PO4. Plates were aspirated and washed two times with 200 μL 0.9% (w/v) NaCl. Incorporation of ^33Pi was determined with a microplate scintillation count (Microbeta, Wallac).
(§4) The fitting method used was a least-squares fit.

A673 cells = assay: Cellular potency in A673 cells; assay type: cell-based; conditions: for IC50: Homo sapiens, A673 cells
Human CDK12 wt/CycK = Human CDK12 wt/CycK (Homo sapiens (Human), UniProt Q9NYV4); assay: Radiometric protein kinase assay (33PanQinase Activity Assay), CDK12; assay type: biochemical; conditions: for CDK7/CDK12: ratio greater than 1 indicated selectivity for CDK12
Chain of Human CDK12 wt/CycK (Q9NYV4 whole entry): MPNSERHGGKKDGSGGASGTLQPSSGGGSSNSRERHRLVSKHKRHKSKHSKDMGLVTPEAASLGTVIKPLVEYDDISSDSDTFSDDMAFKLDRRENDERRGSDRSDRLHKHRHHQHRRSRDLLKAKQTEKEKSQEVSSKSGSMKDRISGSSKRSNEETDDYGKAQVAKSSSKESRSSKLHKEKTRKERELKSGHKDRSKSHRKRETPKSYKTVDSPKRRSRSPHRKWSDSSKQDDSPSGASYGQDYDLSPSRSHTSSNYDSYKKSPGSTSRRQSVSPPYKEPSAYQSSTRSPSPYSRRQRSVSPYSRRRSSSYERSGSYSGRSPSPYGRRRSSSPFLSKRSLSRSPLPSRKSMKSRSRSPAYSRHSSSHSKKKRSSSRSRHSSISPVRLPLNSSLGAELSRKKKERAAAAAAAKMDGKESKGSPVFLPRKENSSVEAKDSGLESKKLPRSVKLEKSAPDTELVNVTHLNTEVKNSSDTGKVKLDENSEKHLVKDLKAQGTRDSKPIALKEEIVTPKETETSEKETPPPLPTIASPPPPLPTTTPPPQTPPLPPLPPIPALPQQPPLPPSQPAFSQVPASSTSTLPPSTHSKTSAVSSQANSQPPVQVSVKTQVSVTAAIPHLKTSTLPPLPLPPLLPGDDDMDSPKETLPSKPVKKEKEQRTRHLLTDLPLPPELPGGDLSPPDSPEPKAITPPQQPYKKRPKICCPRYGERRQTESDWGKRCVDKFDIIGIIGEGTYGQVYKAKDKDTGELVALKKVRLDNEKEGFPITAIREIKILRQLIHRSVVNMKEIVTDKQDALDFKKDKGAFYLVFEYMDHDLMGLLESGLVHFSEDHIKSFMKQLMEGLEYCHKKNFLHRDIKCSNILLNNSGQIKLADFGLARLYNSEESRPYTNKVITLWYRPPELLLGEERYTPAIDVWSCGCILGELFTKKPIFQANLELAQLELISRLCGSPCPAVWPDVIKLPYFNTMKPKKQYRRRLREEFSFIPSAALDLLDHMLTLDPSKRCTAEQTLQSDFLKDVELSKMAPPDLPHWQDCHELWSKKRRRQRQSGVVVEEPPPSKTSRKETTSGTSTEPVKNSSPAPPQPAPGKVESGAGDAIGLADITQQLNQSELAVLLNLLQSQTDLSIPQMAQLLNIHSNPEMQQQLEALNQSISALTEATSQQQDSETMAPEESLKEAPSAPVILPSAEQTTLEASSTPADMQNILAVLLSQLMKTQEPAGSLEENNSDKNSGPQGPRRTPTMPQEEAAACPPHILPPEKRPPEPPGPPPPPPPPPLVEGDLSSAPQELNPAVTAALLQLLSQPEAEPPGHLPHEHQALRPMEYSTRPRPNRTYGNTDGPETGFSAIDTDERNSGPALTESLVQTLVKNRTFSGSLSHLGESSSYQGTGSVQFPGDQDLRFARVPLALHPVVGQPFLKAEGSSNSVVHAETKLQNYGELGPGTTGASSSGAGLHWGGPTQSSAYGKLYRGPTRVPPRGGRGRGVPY
Chain of Human CDK12 wt/CycK (O75909 whole entry partner): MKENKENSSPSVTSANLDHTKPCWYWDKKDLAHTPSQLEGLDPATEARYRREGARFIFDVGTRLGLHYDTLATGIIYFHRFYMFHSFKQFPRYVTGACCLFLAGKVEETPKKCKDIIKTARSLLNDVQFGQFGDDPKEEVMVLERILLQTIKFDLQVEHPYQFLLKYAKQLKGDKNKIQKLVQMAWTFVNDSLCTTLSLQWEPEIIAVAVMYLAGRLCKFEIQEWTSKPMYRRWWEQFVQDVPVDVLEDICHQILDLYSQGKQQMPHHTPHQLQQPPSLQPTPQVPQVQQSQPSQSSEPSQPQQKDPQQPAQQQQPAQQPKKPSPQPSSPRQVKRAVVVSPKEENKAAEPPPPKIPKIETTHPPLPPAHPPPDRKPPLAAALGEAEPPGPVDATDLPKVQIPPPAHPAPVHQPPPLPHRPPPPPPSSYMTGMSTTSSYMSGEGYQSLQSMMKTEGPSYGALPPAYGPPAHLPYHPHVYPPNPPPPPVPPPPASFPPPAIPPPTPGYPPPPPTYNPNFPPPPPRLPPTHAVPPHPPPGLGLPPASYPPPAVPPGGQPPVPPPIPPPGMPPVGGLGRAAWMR
Protocol: as §1, §2, §3, §4

Cyclin K = assay: Western blotting analysis of Cyclin K depletion in cell culture; assay type: cell-based; conditions: A673 cells; for Cyclin K Degrader Activity: Table 2, 1 μM compound, 2 hours
Protocol: Western Blotting Analysis of Cyclin K Depletion in Cell Culture A673 cells were incubated for 2 hours with of 1 μM compound in presence or in absence of 10 μM proteasome inhibitor MG132 (Sigma Aldrich) or NAE (NEDD8 activating enzyme) inhibitor […] (Cell Signalling Technologies). Cells were washed 2× with cold Phosphate Buffered Saline (PBS, Sigma Aldrich), followed by the addition of lysis buffer for 15 minutes on ice before harvesting and centrifugation.
Protein content in the cell lysate was assessed by BCA assay (Thermo Fisher). Samples were then prepared with 4× Laemmlli Buffer (Bio-Rad) and heated to 95° C. for 5 minutes. Each sample was loaded onto a Mini-PROTEAN TGX Stain Free Gel (Bio-Rad) at 50 μg protein/well. SDS-PAGE was performed and then protein was transferred onto a PVDF membrane using a Trans-Blot® Turbo™ Midi PVDF Transfer Pack (Bio-Rad. Membranes were blocked in TBS-T (Invitrogen), 5% (w/v) milk powder (Marvel) overnight at 4° C.
Membranes were incubated with anti-CCNK antibody (rabbit) primary antibody (Abcam) and anti-GAPDH antibody (rabbit) in TBS-T for 2 hours. Membranes were then washed three times with TBS-T, before incubation secondary goat anti-rabbit HRP antibody (Cell Signalling Technologies) followed by 3× washing in TBS-T. Blots were imaged using a Chemidoc imager (Bio-Rad). Cyclin K depletion was measured as the observable drop in band intensity in compound treated samples relative to proteasome-inhibitor treated samples, measured by densitometry (Image Lab).

[1] = Table 3, ratio >0.9 is an indicator of Cyclin K degradation
[2] = Table 1, ATP 0.3 μM, read-out: CDK12 IC50
[3] = Table 3, CDK12 kinase activity, read-out: Biochemical Potency IC50

Row | SMILES | IC50 (Human CDK7/CycH/MAT1) [nM] | IC50 (A673 cells; A673, Table 3) [nM] | Ratio of Biochemical Potency: Cellular Potency (A673 cells; [1]) | IC50 (Human CDK12 wt/CycK; [2]) [nM] | CDK7/CDK12 (Human CDK12 wt/CycK; Table 1) | IC50 (Human CDK12 wt/CycK; [3]) [nM] | Cyclin K degradation (in words) (Cyclin K) | Cyclin K Degrader Activity (Cyclin K) | IC50 (A673 cells; A673, Table 2) [nM] | Ratio of Biochemical Potency: Cellular Potency (A673 cells; Table 2) | IC50 (Human CDK12 wt/CycK; Table 2, CDK12 kinase activity, read-out: Biochemical Potency IC50) [nM]
1 | CCc1cnn2c(NCc3cn4cccc(C)c4n3)cc(NC[C@H]3CCNC[C@@H]3O)nc12 [H-APPAMP-026, (3R,4R)-4-(((3-ethyl-7-(((8-methylimidazo[1,2-a]pyridin-2-yl)methyl)amino)pyrazolo[1,5-a]pyrimidin-5-yl)amino)methyl)piperidin-3-ol] | 69 | 2.5 | 12 | 31 | 2.2 | 31 |  |  |  |  | 
2 | CCc1cnn2c(NCc3ccc[n+]([O-])c3)cc(N3CCCC[C@H]3CCO)nc12 [Dinaciclib, reference compound] |  |  |  |  |  |  | not cyclin K degraders | − |  |  | 
3 | CC(C)c1cnn2c(NCc3nc4ccccc4[nH]3)cc(NC[C@H]3CCNC[C@@H]3O)nc12 [H-APPAMP-005, (3R,4R)-4-(((7-(((1H-benzo[d]imidazol-2-yl)methyl)amino)-3-isopropylpyrazolo[1,5-a]pyrimidin-5-yl)amino)methyl)piperidin-3-ol] | 343 | 47 | 1.4 | 65 | 5.28 | 65 |  |  |  |  | 
4 | Cc1ccn2c(CNc3cc(NC[C@H]4CCNC[C@@H]4O)nc4c(C(C)C)cnn34)c(C)nc2c1 [H-APPAMP-015, (3R,4R)-4-(((7-(((2,7-dimethylimidazo[1,2-a]pyridin-3-yl)methyl)amino)-3-isopropylpyrazolo[1,5-a]pyrimidin-5-yl)amino)methyl)piperidin-3-ol] | 3 | 151 | 1.8 | 277 | 0.01 | 277 |  |  |  |  | 
5 | CC(C)c1cnn2c(NCc3cnc4ccccn34)cc(NC[C@H]3CCNC[C@@H]3O)nc12 [H-APPAMP-016, (3R,4R)-4-(((7-((imidazo[1,2-a]pyridin-3-ylmethyl)amino)-3-isopropylpyrazolo[1,5-a]pyrimidin-5-yl)amino)methyl)piperidin-3-ol] | 179 | 14.8 | 6.5 | 96 | 1.9 | 96 |  |  |  |  | 
6 | CC(C)c1cnn2c(NCc3cn4cc(F)ccc4n3)cc(NC[C@H]3CCNC[C@@H]3O)nc12 [H-APPAMP-011, (3R,4R)-4-(((7-(((6-fluoroimidazo[1,2-a]pyridin-2-yl)methyl)amino)-3-isopropylpyrazolo[1,5-a]pyrimidin-5-yl)amino)methyl)piperidin-3-ol] | 168 | 6.3 | 5.2 | 33 | 5.1 | 33 |  |  |  |  | 
7 | O[C@H]1CNCC[C@@H]1CNc1cc(NCc2cn3ccc(-c4ccccc4)cc3n2)n2ncc(C3CC3)c2n1 [H-APPAMP-045, (3R,4R)-4-(((3-cyclopropyl-7-(((7-phenylimidazo[1,2-a]pyridin-2-yl)methyl)amino)pyrazolo[1,5-a]pyrimidin-5-yl)amino)methyl)piperidin-3-ol] | 496 | 110 | 0.16 | 18 | 27.6 | 18 |  | − | 110 | 0.16 | 18
8 | O[C@H]1CNCC[C@@H]1CNc1cc(NCc2cn3cc(C4CC4)cc(C(F)(F)F)c3n2)n2ncc(C3CC3)c2n1 [H-APPAMP-042, (3R,4R)-4-(((3-cyclopropyl-7-(((6-cyclopropyl-8-(trifluoromethyl)imidazo[1,2-a]pyridin-2-yl)methyl)amino)pyrazolo[1,5-a]pyrimidin-5-yl)amino)methyl)piperidin-3-ol] | 974 | 30 | 3.3 | 100 | 9.7 | 100 |  |  |  |  | 
